For orientation: half-life means the time in which the quantity being followed falls by half.

The source of these data is ChEMBL document CHEMBL1128008, “Synthesis of etoposide phosphate, BMY-40481: A water-soluble clinically active prodrug of etoposide” (Bioorg Med Chem Lett, 1994).

Each structure is given as a SMILES string. Activity calls are given as the source filed them. The rule behind the calls is not given here.

Data set [1] is described as follows: Plasma half life in dog. Format: ADME, organism-based, Canis lupus familiaris.
The nature of data set [2]: Plasma half life in human. Format: ADME, cell-free.
Data set [3] can be described thus: Plasma half life in monkey. The data set is classed as ADME. The following applies: cercopithecidae.
A short description of data set [4]: Plasma half life in mouse. Format: ADME, organism-based.
Another data set deals with B16. Nature of the data set: Inhibitory activity administered was determined against sc B16 melanoma cells; Active. Format: functional, organism-based. The following applies: Mus musculus.
Another data set has as its system Homo sapiens. Kind of data set: Antitumor activity administered ip was determined in human model; Active. Format: functional, organism-based.
In the next data set the test system is L1210. Nature of the data set: Inhibitory activity administered was determined against ic L1210 leukemia cells; Active. The following applies: Mus musculus. The data set is classed as functional.
The test system of data set [5] is P388. Nature of the data set: Inhibitory activity administered iv was determined against implanted P388 leukemia cells; Active. Format: functional, organism-based. The following applies: Mus musculus.
In data set [6] the test system is P388. Nature of the data set: Inhibitory activity administered was determined against ic P388 leukemia cells; Active. The data set is classed as functional. The following applies: Mus musculus.
The subject of the next data set is Mus musculus. Nature of the data set: Antitumor activity administered ip, po was determined in murine model; Active. Format: functional, organism-based.

`COc1cc([C@H]2c3cc4c(cc3[C@@H](O[C@@H]3O[C@H]5CO[C@@H](C)O[C@H]5[C@H](O)[C@@H]3O)[C@H]3COC(=O)[C@H]23)OCO4)cc(OC)c1OP(=O)([O-])[O-].[Na+].[Na+]`: the half-life in data set [1] is 124 min; in data set [2], 45 min; in data set [3], 39 min; in [4], 39 min. Moreover, the result in the data set with B16, in the data set on Homo sapiens, with L1210, with P388 [5] and in the data set on P388 [6] was Active.

For `COc1cc(C2c3cc4c(cc3[C@@H](O[C@@H]3O[C@@H]5CO[C@@H](C)O[C@H]5[C@H](O)[C@H]3O)[C@H]3COC(=O)[C@H]23)OCO4)cc(OC)c1O` (single isomer, unassigned), the outcome in the data set with Homo sapiens and in the data set with Mus musculus was Active.
